Here are results for 29 compounds from US10906915B2, “Substituted pyrazoloazepin-4-ones and their use as phosphodiesterase inhibitors” (LEO Pharma A/S, priority 2016, dated 2021).

Broadly, the IC50 is the concentration that inhibits the measured activity by half.

Sequence of human PDE4D catalytic domain (Q08499 380-740 limits assumed): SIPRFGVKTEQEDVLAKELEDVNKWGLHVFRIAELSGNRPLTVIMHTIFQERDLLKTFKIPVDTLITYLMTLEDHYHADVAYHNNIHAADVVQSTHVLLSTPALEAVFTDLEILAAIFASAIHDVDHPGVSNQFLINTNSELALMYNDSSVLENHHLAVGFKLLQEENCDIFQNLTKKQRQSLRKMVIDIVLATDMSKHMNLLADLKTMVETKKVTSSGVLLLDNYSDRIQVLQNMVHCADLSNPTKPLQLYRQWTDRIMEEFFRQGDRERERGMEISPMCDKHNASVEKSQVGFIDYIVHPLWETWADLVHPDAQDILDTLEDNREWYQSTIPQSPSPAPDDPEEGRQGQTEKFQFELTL

For the assay, the target named is human PDE4D catalytic domain (UniProt no. Q08499) (Homo sapiens (Human), UniProt Q08499). The experiment in a line: PDE4 assay (TR-FRET, FAM-cAMP cleavage). In kind it is biochemical. The following applies: human PDE4D catalytic domain; molar concentration giving 50% inhibition of substrate cleavage; read-out: PDE4 IC50 range. As to the method:
The human PDE4D catalytic domain (UniProt no. Q08499 [[…]]) was incubated with a mixture of non-labelled cAMP (cyclic adenosine monophosphate) and fluorescein amidite (FAM) conjugated cAMP and titrated test or reference compound. Following brief incubation the enzymatic reaction was stopped by addition of binding buffer containing nanoparticles with immobilized trivalent metal ions capable of binding 1) AMP phospho groups and 2) terbium (Tb) donor fluorophores. Subsequent excitation of the Tb donor triggers time-resolved FRET to adjacent FAM acceptor molecules resulting in light emission. In the presence of a PDE4 inhibitor, AMP generation was reduced resulting in a lower fluorescence signal. The cAMP phosphodiester is not bound by the detection system.
The results were calculated as the molar concentrations resulting in 50% inhibition of the substrate cleavage compared to controls samples, and are expressed as a range of IC50 (nM).
On the technique in general: TR-FRET usually uses a lanthanide donor and a delayed reading to cut background.
Consider `CCc1nn(CCCOC(=O)c2ccc(F)c(F)c2)c2c1C(=O)NCC1(CCOCC1)C2` [Example 44, 3-(3-ethyl-4-oxo-spiro[6,8-dihydro-5H-pyrazolo[4,3-c]azepine-7,4′-tetrahydropyran]-1-yl)propyl 3,4-difluorobenzoate], for which the IC50 is below 100 nM. For `CCc1nn(CCCOC(=O)c2cccc(F)c2F)c2c1C(=O)NCC1(CCOCC1)C2` [Example 45, 3-(3-ethyl-4-oxo-spiro[6,8-dihydro-5H-pyrazolo[4,3-c]azepine-7,4′-tetrahydropyran]-1-yl)propyl 2,3-difluorobenzoate] the value was below 100 nM. With `CCc1nn(CCCOC(=O)c2c(F)cccc2F)c2c1C(=O)NCC1(CCOCC1)C2` [Example 46, 3-(3-ethyl-4-oxo-spiro[6,8-dihydro-5H-pyrazolo[4,3-c]azepine-7,4′-tetrahydropyran]-1-yl)propyl 2,6-difluorobenzoate] the figure was below 100 nM; with `CCc1nn(CCCOC(=O)c2cc(F)ccc2F)c2c1C(=O)NCC1(CCOCC1)C2` [Example 47, 3-(3-ethyl-4-oxo-spiro[6,8-dihydro-5H-pyrazolo[4,3-c]azepine-7,4′-tetrahydropyran]-1-yl)propyl 2,5-difluorobenzoate], below 100 nM; with `CCc1nn(CCCOC(=O)C2CCC(OC)CC2)c2c1C(=O)NCC1(CCOCC1)C2` (centres unmarked) [Example 48, 3-(3-ethyl-4-oxo-spiro[6,8-dihydro-5H-pyrazolo[4,3-c]azepine-7,4′-tetrahydropyran]-1-yl)propyl 4-methoxycyclohexane-carboxylate], 100 to 500 nM.

Regarding `CCc1nn(CCCOC(=O)C2CCC(F)(F)CC2)c2c1C(=O)NCC1(CCOCC1)C2` [Example 49, 3-(3-ethyl-4-oxo-spiro[6,8-dihydro-5H-pyrazolo[4,3-c]azepine-7,4′-tetrahydropyran]-1-yl)propyl 4,4-difluorocyclohexane-carboxylate], the IC50 lay within 100 to 500 nM. With `CCc1nn(CCCOC(=O)c2ccc(C(C)=O)cc2)c2c1C(=O)NCC1(CCOCC1)C2` [Example 50, 3-(3-ethyl-4-oxo-spiro[6,8-dihydro-5H-pyrazolo[4,3-c]azepine-7,4′-tetrahydropyran]-1-yl)propyl 4-acetylbenzoate] the figure was below 100 nM; with `CCc1nn(CCCOC(=O)c2cccc(C(C)=O)c2)c2c1C(=O)NCC1(CCOCC1)C2` [Example 51, 3-(3-ethyl-4-oxo-spiro[6,8-dihydro-5H-pyrazolo[4,3-c]azepine-7,4′-tetrahydropyran]-1-yl)propyl 3-acetylbenzoate], below 100 nM; with `CCc1nn(CCCOC(=O)c2ccc(C#N)c(F)c2)c2c1C(=O)NCC1(CCOCC1)C2` [Example 52, 3-(3-ethyl-4-oxo-spiro[6,8-dihydro-5H-pyrazolo[4,3-c]azepine-7,4′-tetrahydropyran]-1-yl)propyl 4-cyano-3-fluoro-benzoate], below 100 nM. With `CCc1nn(CCCOC(=O)c2cc(F)cc(C#N)c2)c2c1C(=O)NCC1(CCOCC1)C2` [Example 53, 3-(3-ethyl-4-oxo-spiro[6,8-dihydro-5H-pyrazolo[4,3-c]azepine-7,4′-tetrahydropyran]-1-yl)propyl 3-cyano-5-fluoro-benzoate] the figure was below 100 nM.

As for `CCc1nn(CCCOC(=O)c2ccc(C#N)cc2F)c2c1C(=O)NCC1(CCOCC1)C2` [Example 54, 3-(3-ethyl-4-oxo-spiro[6,8-dihydro-5H-pyrazolo[4,3-c]azepine-7,4′-tetrahydropyran]-1-yl)propyl 4-cyano-2-fluoro-benzoate], the IC50 is below 100 nM. For `CCc1nn(CCCOC(=O)c2ccc(F)c(C#N)c2)c2c1C(=O)NCC1(CCOCC1)C2` [Example 55, 3-(3-ethyl-4-oxo-spiro[6,8-dihydro-5H-pyrazolo[4,3-c]azepine-7,4′-tetrahydropyran]-1-yl)propyl 3-cyano-4-fluoro-benzoate] the value was below 100 nM.

With `CCc1nn(CCCOC(=O)c2cc(C#N)ccc2F)c2c1C(=O)NCC1(CCOCC1)C2` [Example 56, 3-(3-ethyl-4-oxo-spiro[6,8-dihydro-5H-pyrazolo[4,3-c]azepine-7,4′-tetrahydropyran]-1-yl)propyl 5-cyano-2-fluoro-benzoate], the IC50 was below 100 nM. With `CCc1nn(CCCOC(=O)c2ccc3c(c2)OCO3)c2c1C(=O)NCC1(CCOCC1)C2` [Example 57, 3-(3-ethyl-4-oxo-spiro[6,8-dihydro-5H-pyrazolo[4,3-c]azepine-7,4′-tetrahydropyran]-1-yl)propyl 1,3-benzodioxole-5-carboxylate] the figure was below 100 nM. For `CCc1nn(CCCOC(=O)c2ccc(OC)c(C)c2)c2c1C(=O)NCC1(CCOCC1)C2` [Example 58, 3-(3-ethyl-4-oxo-spiro[6,8-dihydro-5H-pyrazolo[4,3-c]azepine-7,4′-tetrahydropyran]-1-yl)propyl 4-methoxy-3-methyl-benzoate] the value was below 100 nM. With `CCc1nn(CCCOC(=O)c2ccc(C)c(OC)c2)c2c1C(=O)NCC1(CCOCC1)C2` [Example 59, 3-(3-ethyl-4-oxo-spiro[6,8-dihydro-5H-pyrazolo[4,3-c]azepine-7,4′-tetrahydropyran]-1-yl)propyl 3-methoxy-4-methyl-benzoate], the IC50 was below 100 nM. With `CCc1nn(CCCOC(=O)c2ccc(C)cc2OC)c2c1C(=O)NCC1(CCOCC1)C2` [Example 60, 3-(3-ethyl-4-oxo-spiro[6,8-dihydro-5H-pyrazolo[4,3-c]azepine-7,4′-tetrahydropyran]-1-yl)propyl 2-methoxy-4-methyl-benzoate] the figure was below 100 nM; with `CCOc1cccc(C(=O)OCCCn2nc(CC)c3c2CC2(CCOCC2)CNC3=O)c1` [Example 61, 3-(3-ethyl-4-oxo-spiro[6,8-dihydro-5H-pyrazolo[4,3-c]azepine-7,4′-tetrahydropyran]-1-yl)propyl 3-ethoxybenzoate], below 100 nM; with `CCc1nn(CCCOC(=O)c2ccc(OC)c(F)c2)c2c1C(=O)NCC1(CCOCC1)C2` [Example 62, 3-(3-ethyl-4-oxo-spiro[6,8-dihydro-5H-pyrazolo[4,3-c]azepine-7,4′-tetrahydropyran]-1-yl)propyl 3-fluoro-4-methoxy-benzoate], below 100 nM. On to `CCc1nn(CCCOC(=O)c2cc(F)cc(OC)c2)c2c1C(=O)NCC1(CCOCC1)C2` [Example 63, 3-(3-ethyl-4-oxo-spiro[6,8-dihydro-5H-pyrazolo[4,3-c]azepine-7,4′-tetrahydropyran]-1-yl)propyl 3-fluoro-5-methoxy-benzoate], for which the half-inhibitory concentration (IC50) was below 100 nM.

As to `CCc1nn(CCCOC(=O)c2ccc(OC)cc2F)c2c1C(=O)NCC1(CCOCC1)C2` [Example 64, 3-(3-ethyl-4-oxo-spiro[6,8-dihydro-5H-pyrazolo[4,3-c]azepine-7,4′-tetrahydropyran]-1-yl)propyl 2-fluoro-4-methoxy-benzoate], the half-inhibitory concentration (IC50) was below 100 nM. For `CCc1nn(CCCOC(=O)c2ccc(F)c(OC)c2)c2c1C(=O)NCC1(CCOCC1)C2` [Example 65, 3-(3-ethyl-4-oxo-spiro[6,8-dihydro-5H-pyrazolo[4,3-c]azepine-7,4′-tetrahydropyran]-1-yl)propyl 4-fluoro-3-methoxy-benzoate] the value was below 100 nM; for `CCc1nn(CCCOC(=O)c2cccc(OC)c2F)c2c1C(=O)NCC1(CCOCC1)C2` [Example 66, 3-(3-ethyl-4-oxo-spiro[6,8-dihydro-5H-pyrazolo[4,3-c]azepine-7,4′-tetrahydropyran]-1-yl)propyl 2-fluoro-3-methoxy-benzoate], below 100 nM. For `CCc1nn(CCCOC(=O)c2cc(OC)ccc2F)c2c1C(=O)NCC1(CCOCC1)C2` [Example 67, 3-(3-ethyl-4-oxo-spiro[6,8-dihydro-5H-pyrazolo[4,3-c]azepine-7,4′-tetrahydropyran]-1-yl)propyl 2-fluoro-5-methoxy-benzoate] the value was below 100 nM. For the compound `CCc1nn(CCCOC(=O)c2cc(F)ccc2OC)c2c1C(=O)NCC1(CCOCC1)C2` [Example 68, 3-(3-ethyl-4-oxo-spiro[6,8-dihydro-5H-pyrazolo[4,3-c]azepine-7,4′-tetrahydropyran]-1-yl)propyl 5-fluoro-2-methoxy-benzoate], the IC50 is below 100 nM. For `CCc1nn(CCCOC(=O)c2c(F)cccc2OC)c2c1C(=O)NCC1(CCOCC1)C2` [Example 69, 3-(3-ethyl-4-oxo-spiro[6,8-dihydro-5H-pyrazolo[4,3-c]azepine-7,4′-tetrahydropyran]-1-yl)propyl 2-fluoro-6-methoxy-benzoate] the value was below 100 nM; for `CCc1nn(CCCOC(=O)c2cccc(F)c2OC)c2c1C(=O)NCC1(CCOCC1)C2` [Example 70, 3-(3-ethyl-4-oxo-spiro[6,8-dihydro-5H-pyrazolo[4,3-c]azepine-7,4′-tetrahydropyran]-1-yl)propyl 3-fluoro-2-methoxy-benzoate], below 100 nM. For `CCc1nn(CCCOC(=O)c2ccc(F)cc2OC)c2c1C(=O)NCC1(CCOCC1)C2` [Example 71, 3-(3-ethyl-4-oxo-spiro[6,8-dihydro-5H-pyrazolo[4,3-c]azepine-7,4′-tetrahydropyran]-1-yl)propyl 4-fluoro-2-methoxy-benzoate] the value was below 100 nM; for `CCc1nn(CCCOC(=O)c2ccc(C)c(Cl)c2)c2c1C(=O)NCC1(CCOCC1)C2` [Example 72, 3-(3-ethyl-4-oxo-spiro[6,8-dihydro-5H-pyrazolo[4,3-c]azepine-7,4′-tetrahydropyran]-1-yl)propyl 3-chloro-4-methyl-benzoate], below 100 nM.
